In patent publication US6350737B1, “Platinum complex, its preparation and therapeutic application” (Pliva-Lachema, A.S., priority 1998, dated 2002):

Assays:
Ocular melanoma VUP = test: Cytotoxicity on ocular melanoma VUP; format: cell-based, human
Description: (§1) The MTT test was chosen for screening the effectivity of the respective compounds. The test is based on reaction of a tetrazolium salt with respirating mitochondria of living cells. The resulted insoluble formazan is solubilized and its amount is determined on a microplate reader. […] Inhibition constant (IC50) represents such a concentration of a substance which causes 50% supression of growth of a cell culture. This constant has been determined from a graph of dependence of MTT value (mitochondrial activity of cells) on the concentration of tested substance. A GraphPad Prism programme was used for determination of the constant from the measured values, whereby Boltzman sigmoid was used for constructing a curve from single experimental points.

[1] = system: lymfoblastic leucaemia line CEMt; test: MTT test, human tumor line CEMt; format: cell-based; conditions: read-out: Inhibition constant IC50
Description: as §1
Comparation experiments were performed on lymfoblastic leucaemia line CEMt. The MTT test was used for evaluation of cytotoxic effect.
Vitality of cells was determined by a standard spectrophotometric MTT test based on reduction of 3-(4,5-dimethylthiazol-2-yl)-2,5-diphenyltetrazolium bromide by vital cells under formation of a formazane.

[2] = system: lines P 815 (mastocytoma) and L 1210 (lymphocyte leucaernia line); test: MTT test, mice tumor lines (line not stated for the carboplatin value); format: cell-based
Description: (§2) Cytostatic activity of compounds of the present invention has been tested in vitro on tumor lines. The MTT test was chosen for screening the effectivity of the respective compounds. The test is based on reaction of a tetrazolium salt with respirating mitochondria of living cells. The resulted insoluble formazan is solubilized and its amount is determined on a microplate reader. This method is being used as a standard one for evaluation of cytostatic effect of pharmaceutically active compounds (Tim Mosmann, Rapid colorimetric assay for cellular growth and survival, Application to proliferation and cytotoxicity assays, Journal of Immunological Methods, 65 (1983), 55-63). Inhibition constant (IC50) represents such a concentration of a substance which causes 50% supression of growth of a cell culture. This constant has been determined from a graph of dependence of MTT value (mitochondrial activity of cells) on the concentration of tested substance. A GraphPad Prism programme was used for determination of the constant from the measured values, whereby Boltzman sigmoid was used for constructing a curve from single experimental points. Chosen cell lines are standard lines used for routine screening of cytostatic effect of pharmacologically active compounds.
(§3) Within this example, lines P 815 (mastocytoma) and L 1210 (lymphocyte leucaernia line) were tested.

P 815 (mastocytoma) = test: MTT test, mice tumor line P 815; format: cell-based; conditions: P-815 line
Description: as §2, §3

[3] = system: L 1210 (lymphocyte leucaernia line); test: MTT test, mice tumor line L 1210; format: cell-based; conditions: L-1210 line
Description: as §2, §3

[4] = system: solid mammal adenocarcinoma MC 2111; test: Antitumor activity in vivo, single i.v. dose, survival; parameters: species or system Mice female DBA/1
Description: Mice female DBA/1 of body mass 22.9-25.8 g were used in this experiment. Tumors were developed by s.c. inoculation of 0.2 ml of a tumor homogenate diluted in 1:1 volume ratio with an isotonic glucose solution. Tested compounds were applied in a form of an isotonic water solution prepared immediately before application by dissolution of corresponding lyophilised product in water for injections and further by dilution with isotonic sodium chloride solution ad hoc according to the need, in volumes of 0.1-0.4 ml per 20 g of body mass of an animal, as apparent from the following table.

## N.N.O=C([O-])C1(C(=O)[O-])CCC1.[Pt+2] [Carboplatin, cis-diammine-/1,1-cyclobutanedicarboxylato/platinum(II) complex]
Ocular melanoma VUP
  IC50: 95 µM
[1]
  IC50: 30.4 µM
[2]; IC50 comparison
  activity relative to LA-9: approximately hundred times less active
[2]; line not specified, both in a free form or as a complex with cyclodextrin
  IC50: 105 µM

## N.N.[Cl][Pt][Cl] [Cisplatin, cis-diammine-dichloroplatinum(II) complex]
[1]
  IC50: 1.9 µM

## cis-(1-adamantylamine) amminedichloroplatinum (II) [LA-9]
P 815 (mastocytoma)
  IC50: 1.1 µM
[3]
  IC50: 1.5 µM
Ocular melanoma VUP
  IC50: 9 µM
Ocular melanoma VUP; IC50 comparison
  sensibility in comparison with Carboplatin: approximately ten times higher sensibility
[4]; 12 mg/kg single i.v. dose
  Survivors (% of control): 410 % of control
[4]; animals used in the tests
  Optimum dosage: 13 to 16 mg/kg
[1]
  IC50: 0.36 µM

## O=C1[O][Pt]2([NH][C@@H]3CCCC[C@H]3[NH]2)[O]C1=O [Oxaliplatin]
[1]
  IC50: 4.8 µM
